In patent publication US6504058B1 (priority 1997, dated 2003):

Legend:
[1] = system: Botrytis cinerea; experiment: Test E: gray mold, preventive spray on cucumber seedlings, disease rating; type: in vivo, Botrytis cinerea (on cucumber seedlings); conditions: 200 ppm test suspension sprayed to run-off (equivalent to 500 g/ha) on cucumber seedlings; 100 = 100% disease control, 0 = no control; # = significant activity
How it was run: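 Cucumber seedlings sprayed to run-off with 200 ppm suspension (equivalent to 500 g/ha), inoculated next day with B. cinerea spores. Kept 48 h saturated at 20 °C, then 5 days in growth chamber at 20 °C; disease control rated 0–100 relative to controls.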

[2] = system: Erysiphe graminis f. sp. tritici; experiment: Test A: wheat powdery mildew, preventive spray on wheat seedlings, disease rating; type: in vivo, Erysiphe graminis f. sp. tritici (on wheat seedlings); conditions: 200 ppm test suspension sprayed to run-off (equivalent to 500 g/ha) on wheat seedlings; 100 = 100% disease control, 0 = no control; # = significant activity
How it was run: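 Compounds at 200 ppm (acetone 3%, 250 ppm Trem 014 in water; equivalent to 500 g/ha) sprayed to run-off on wheat seedlings, inoculated with spore dust the following day. Plants held at 20° C. for 7 days, then rated 0–100% disease control relative to untreated controls.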

[3] = system: Pyricularia oryzae; type: in vivo, Pyricularia oryzae (on rice seedlings); conditions: 200 ppm test suspension sprayed to run-off (equivalent to 500 g/ha) on rice seedlings; 100 = 100% disease control, 0 = no control; # = significant activity
[4] = system: Puccinia recondita; experiment: Test B: wheat leaf rust, preventive spray on wheat seedlings, disease rating; type: in vivo, Puccinia recondita (on wheat seedlings); conditions: 200 ppm test suspension sprayed to run-off (equivalent to 500 g/ha) on wheat seedlings; 100 = 100% disease control, 0 = no control; # = significant activity
How it was run: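 Wheat seedlings were sprayed to run-off with 200 ppm suspensions (≈500 g/ha; 3% acetone, 250 ppm Trem 014) and inoculated with Puccinia recondita spores the next day. Plants were held 24 h saturated at 20 °C, then 6 days at 20 °C. Disease control was rated 0-100 relative to untreated controls.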

[5] = system: Phytophthora infestans; type: in vivo, Phytophthora infestans (on tomato seedlings); conditions: 200 ppm test suspension sprayed to run-off (equivalent to 500 g/ha) on tomato seedlings; 100 = 100% disease control, 0 = no control; # = significant activity

With `CC(COc1cc(F)ccc1F)NC(=O)C1(C)CC(C)(Br)C1` (stereo not drawn) [compound 58] the “Test E disease control rating (gray mold)” value [1] was 0 (a rating of 0 indicates no disease control (relative to the controls)), the “Test A disease control rating (wheat powdery mildew)” value (from here on “Test A disease control rating”) [2] was 72% and the “Test C disease control rating (rice blast)” value (“Test C disease control rating” below) [3] was 97# %. For the same compound, the “Test B disease control rating (wheat leaf rust)” value (“Test B disease control rating” for short) [4] was 0 (a rating of 0 indicates no disease control (relative to the controls)) and the “Test D disease control rating (potato and tomato late blight)” value (shortened to “Test D disease control rating”) [5] was 0 (a rating of 0 indicates no disease control (relative to the controls)).
With `CC(NC(=O)C1(C)CC(C)(Cl)C1)c1cccc2ccccc12` (stereo not drawn) [compound 22] the “Test E disease control rating (gray mold)” value [1] was 0 (a rating of 0 indicates no disease control (relative to the controls)), the “Test A disease control rating” value [2] was 0 (a rating of 0 indicates no disease control (relative to the controls)) and the “Test C disease control rating” value [3] was 0 (a rating of 0 indicates no disease control (relative to the controls)). For the same compound, the “Test B disease control rating” value [4] was 0 (a rating of 0 indicates no disease control (relative to the controls)) and the “Test D disease control rating” value [5] was 0 (a rating of 0 indicates no disease control (relative to the controls)).
`CC(NC(=O)C1(C)CC(C)(Cl)C1)c1ccc(Cl)cc1Cl` (stereo not drawn) [compound 20] was tested, and the “Test E disease control rating (gray mold)” value [1] was 0 (a rating of 0 indicates no disease control (relative to the controls)), the “Test A disease control rating” value [2] was 59% and the “Test C disease control rating” value [3] was 100# (a rating of 100 indicates 100% disease control). The “Test B disease control rating” value [4] was 0 (a rating of 0 indicates no disease control (relative to the controls)) and the “Test D disease control rating” value [5] was 0 (a rating of 0 indicates no disease control (relative to the controls)).
In the case of `CC(COc1cc(Cl)ccc1C#N)NC(=O)C1(C)CC(C)(Cl)C1` (stereo not drawn) [compound 45], the “Test E disease control rating (gray mold)” value [1] is reported as 0 (a rating of 0 indicates no disease control (relative to the controls)), the “Test A disease control rating” value [2] is reported as 0 (a rating of 0 indicates no disease control (relative to the controls)) and the “Test C disease control rating” value [3] is reported as 99# %. The “Test B disease control rating” value [4] was 0 (a rating of 0 indicates no disease control (relative to the controls)) and the “Test D disease control rating” value [5] was 61%.
For `CC(NC(=O)C1(C)CC(C)(Cl)C1)c1ccc2ccccc2c1` (stereo not drawn) [compound 24], the “Test E disease control rating (gray mold)” value [1] was 0 (a rating of 0 indicates no disease control (relative to the controls)), the “Test A disease control rating” value [2] was 0 (a rating of 0 indicates no disease control (relative to the controls)) and the “Test C disease control rating” value [3] was 100# (a rating of 100 indicates 100% disease control). The “Test B disease control rating” value [4] was 0 (a rating of 0 indicates no disease control (relative to the controls)) and the “Test D disease control rating” value [5] was 0 (a rating of 0 indicates no disease control (relative to the controls)).
For `CC(COc1cc(F)ccc1F)NC(=O)C1(C(F)(F)F)CC(C)(Cl)C1` (stereo not drawn) [compound 27], the “Test E disease control rating (gray mold)” value [1] was 0 (a rating of 0 indicates no disease control (relative to the controls)), the “Test A disease control rating” value [2] was 72% and the “Test C disease control rating” value [3] was 99# %. The “Test B disease control rating” value [4] was 0 (a rating of 0 indicates no disease control (relative to the controls)) and the “Test D disease control rating” value [5] was 14%.
With `CC(NC(=O)C1(C)CC(Cl)(CCl)C1)c1ccc2ccccc2c1` (stereo not drawn) [compound 63] the “Test E disease control rating (gray mold)” value [1] was 0 (a rating of 0 indicates no disease control (relative to the controls)), the “Test A disease control rating” value [2] was 0 (a rating of 0 indicates no disease control (relative to the controls)) and the “Test C disease control rating” value [3] was 53%. For the same compound, the “Test B disease control rating” value [4] was 0 (a rating of 0 indicates no disease control (relative to the controls)) and the “Test D disease control rating” value [5] was 37%.
With `CC(NC(=O)C1(C)CC(Cl)(CCl)C1)c1ccc(Br)cc1` (stereo not drawn) [compound 61] the “Test E disease control rating (gray mold)” value [1] was 0 (a rating of 0 indicates no disease control (relative to the controls)), the “Test A disease control rating” value [2] was 0 (a rating of 0 indicates no disease control (relative to the controls)) and the “Test C disease control rating” value [3] was 100# (a rating of 100 indicates 100% disease control). For the same compound, the “Test B disease control rating” value [4] was 0 (a rating of 0 indicates no disease control (relative to the controls)) and the “Test D disease control rating” value [5] was 96# %.
For `CC(COc1cc(Cl)ccc1F)NC(=O)C1(C)CC(C)(Br)C1` (stereo not drawn) [compound 53], the “Test E disease control rating (gray mold)” value [1] was 0 (a rating of 0 indicates no disease control (relative to the controls)), the “Test A disease control rating” value [2] was 100# (a rating of 100 indicates 100% disease control) and the “Test C disease control rating” value [3] was 100# (a rating of 100 indicates 100% disease control). For the same compound, the “Test B disease control rating” value [4] was 0 (a rating of 0 indicates no disease control (relative to the controls)) and the “Test D disease control rating” value [5] was 0 (a rating of 0 indicates no disease control (relative to the controls)).
In the case of `CC(COc1cc(Br)ccc1C#N)NC(=O)C1(C)CC(C)(Cl)C1` (stereo not drawn) [compound 47], the “Test E disease control rating (gray mold)” value [1] is reported as 0 (a rating of 0 indicates no disease control (relative to the controls)), the “Test A disease control rating” value [2] is reported as 97# % and the “Test C disease control rating” value [3] is reported as 94# %. For the same compound, the “Test B disease control rating” value [4] was 25% and the “Test D disease control rating” value [5] was 26%.
`CC(NC(=O)C1(C)CC(C)(Cl)C1)c1ccc2ccccc2c1` (stereo not drawn) [compound 23] was tested, and the “Test E disease control rating (gray mold)” value [1] was 0 (a rating of 0 indicates no disease control (relative to the controls)), the “Test A disease control rating” value [2] was 0 (a rating of 0 indicates no disease control (relative to the controls)) and the “Test C disease control rating” value [3] was 97# %. The “Test B disease control rating” value [4] was 0 (a rating of 0 indicates no disease control (relative to the controls)) and the “Test D disease control rating” value [5] was 0 (a rating of 0 indicates no disease control (relative to the controls)).
With `CC(NC(=O)C1CC(C)(Cl)C1)C(Oc1ccccc1C#N)c1ccccc1` (stereo not drawn) [compound 35] the “Test E disease control rating (gray mold)” value [1] was 0 (a rating of 0 indicates no disease control (relative to the controls)), the “Test A disease control rating” value [2] was 0 (a rating of 0 indicates no disease control (relative to the controls)) and the “Test C disease control rating” value [3] was 86# %. For the same compound, the “Test B disease control rating” value [4] was 0 (a rating of 0 indicates no disease control (relative to the controls)) and the “Test D disease control rating” value [5] was 0 (a rating of 0 indicates no disease control (relative to the controls)).
